As usually defined, the EC50 is the concentration that produces a half-maximal response. A lower EC50 goes with an effect from little substance.

The target of this test is T1, Adenosine receptor A1 (Cavia porcellus, UniProt P47745).
T1 sequence (P47745 whole entry): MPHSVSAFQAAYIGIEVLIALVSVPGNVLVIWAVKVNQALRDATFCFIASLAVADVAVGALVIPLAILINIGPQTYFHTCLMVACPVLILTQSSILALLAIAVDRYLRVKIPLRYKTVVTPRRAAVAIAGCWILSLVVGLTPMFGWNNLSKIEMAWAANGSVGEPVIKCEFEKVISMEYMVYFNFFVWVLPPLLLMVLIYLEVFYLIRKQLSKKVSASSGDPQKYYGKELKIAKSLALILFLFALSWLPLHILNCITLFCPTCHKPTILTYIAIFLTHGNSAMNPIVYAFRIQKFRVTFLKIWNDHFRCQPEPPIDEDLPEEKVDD
The test can be described thus: Tested for adenosine A1 receptor agonistic activity by determining concentration needed to prolong the stimulus-QRS interval by 50% of the maximum response.
Molecule `Nc1nc(N=NCc2cccs2)nc2c1ncn2C1O[C@H](CO)[C@@H](O)[C@H]1O` (some centres not stated) had an EC50 of 41.7 µM. As to `Nc1nc(N=NCc2cccc(Cl)c2)nc2c1ncn2C1O[C@H](CO)[C@@H](O)[C@H]1O` (some centres not stated), the EC50 is 49 µM. `Nc1nc(N=NCc2ccccc2)nc2c1ncn2C1O[C@H](CO)[C@@H](O)[C@H]1O` (some centres not stated): a half-maximal response (EC50) required 83.2 µM.

With `Nc1nc(N=NCCc2ccccc2)nc2c1ncn2C1O[C@H](CO)[C@@H](O)[C@H]1O` (some centres not stated), the response was half-maximal at 83.2 µM (EC50). In turn, `Nc1nc(N=NCc2ccccn2)nc2c1ncn2C1O[C@H](CO)[C@@H](O)[C@H]1O` (some centres not stated) came in with a concentration giving a half-maximal response (EC50) of 41.7 µM. Compared with the last molecule, the EC50 is about 2-fold lower. Regarding `Nc1nc(N=NCc2ccccc2Cl)nc2c1ncn2C1O[C@H](CO)[C@@H](O)[C@H]1O` (some centres not stated), the response was half-maximal at 49 µM (EC50). Regarding `Nc1nc(N=NCc2ccccc2F)nc2c1ncn2C1O[C@H](CO)[C@@H](O)[C@H]1O` (some centres not stated), the EC50 was determined as 41.7 µM.

These data come from BindingDB's records for doi:10.1021/jm00102a008 (University of South Florida, 1993).
